In brackets after ≈: the same amount, converted by molar mass.
Experiments:
[1] = system: MCF7 human breast cancer cell line; test: In vitro cytotoxicity, MTT; assay type: cell-based; conditions: Homo sapiens; MCF7, 72 h exposure
Protocol: (§1) Cell culture reagents were obtained from Merck, and plasticware was obtained from Sarstedt. Human colon adenocarcinoma cell line Colo 205 (ATCC CCL-222) and MCF7 (ATCC HTB-22) breast cancer cells were purchased from LGC Promochem. Cancer cells were cultured in RPMI 1640 medium supplemented with 10% heat-inactivated fetal bovine serum, 2 mM L-glutamine, and 1 mM sodium pyruvate and buffered with 100 mM HEPES. The cells were incubated at 37 °C in a 5% CO2, 95% air atmosphere and were detached with Trypsin-Versene (EDTA) solution for 5 min at 37 °C.
(§2) The tested ligands were dissolved in DMSO, and the stock solutions (5 mM) were diluted in complete culture medium. Two-fold serial dilutions of compounds were made in 100 μL of the medium, horizontally. The semiadherent colon adenocarcinoma cells were treated with Trypsin-Versene (EDTA) solution. They were adjusted to a density of 1 × 10^4 cells in 100 μL of RPMI 1640 medium and were added to each well, with the exception of the medium control wells. The final volume of the wells containing compounds and cells was 200 μL. The plates containing the cells were incubated at 37 °C for 72 h; at the end of the incubation period, 20 μL of MTT solution (5 mg/mL) was added to each well. After incubation at 37 °C for 4 h, 100 μL of sodium dodecyl sulfate solution (10% in 0.01 M HCl) was added to each well, and the plates were further incubated at 37 °C overnight. Cell growth was determined by measuring the optical density (OD) at 540 and 630 nm with a Multiskan EX plate reader (Thermo Labsystems).
(§3) Curves for the data obtained on cancer cells were fitted by GraphPad Prism software using the sigmoidal dose–response model (comparing variable and fixed slopes). The IC50 values were always obtained from at least three independent experiments.

[2] = system: Colo 205 human colon cancer cell line; test: In vitro cytotoxicity, MTT; assay type: cell-based; conditions: Homo sapiens; Colo 205, 72 h exposure
Protocol: as §1, §2, §3

Klebsiella pneumoniae = test: Antibacterial MIC, broth dilution; assay type: cell-based; conditions: Klebsiella pneumoniae, 18 h
Protocol: (§4) Antibacterial activity was determined for the title compounds in various Gram-negative and Gram-positive bacterial strains, namely Klebsiella pneumoniae, Escherichia coli (ATCC 25922), Staphylococcus aureus (272123), methicillin-resistant Staphylococcus aureus (ATCC 43300), and Enterococcus faecalis (ATCC 29212). The stock solutions of the tested compounds were prepared in DMSO at a 5 mM concentration. […] All stock solutions were diluted in 100 μL of Mueller Hinton Broth, and then two-fold serial dilutions were performed. Then, a 10^–4 dilution of an overnight bacterial culture in 100 μL of medium was added to each well, except for the medium control wells. The highest concentration of the compounds in the tested samples was 100 μM. The plates were incubated at 37 °C for 18 h. After that, the MIC values were determined by visual inspection.

[3] = system: Escherichia coli (ATCC 25922); test: Antibacterial MIC, broth dilution; assay type: cell-based; conditions: Escherichia coli, ATCC25922, 18 h
Protocol: as §4

[4] = system: Enterococcus faecalis (ATCC 29212); test: Antibacterial MIC, broth dilution; assay type: cell-based; conditions: Enterococcus faecalis, ATCC29212, 18 h
Protocol: as §4

[5] = system: Staphylococcus aureus (272123); test: Antibacterial MIC, broth dilution; assay type: cell-based; conditions: Staphylococcus aureus, 18 h
Protocol: as §4

[6] = system: methicillin-resistant Staphylococcus aureus (ATCC 43300); test: microbe, parasite or virus in culture; assay type: cell-based; conditions: Staphylococcus aureus, ATCC 43300 / MRSA, 18 h
Protocol: as §4

calf thymus-DNA (CT-DNA) = test: Viscometry with CT-DNA; assay type: binding; conditions: compound/DNA ratios 0.0 to 1.0; 5 mM Tris, 100 mM NaCl, pH 7.40, 25.0 °C
Protocol: […] Then, the samples were incubated at 37 °C and with constant shaking at 300 rpm for 10 min and 1 h. After each incubation, the viscosity was measured at a constant temperature of 25.0 ± 0.2 °C in a vibrational viscometer. The relative viscosity was calculated by taking the mean values of three replicate measurements, and the values were represented by plotting the values of relative viscosity of CT-DNA (η/η0)^1/3 against 1/R.

Compound | IC50 [1] [nM] | IC50 [2] [nM] | MIC (Klebsiella pneumoniae) [µM] | MIC [3] [µM] | MIC [4] [µM] | MIC [5] [µM] | MIC [6] [µM] | effect on relative viscosity of CT-DNA (calf thymus-DNA (CT-DNA))
COc1cccc2c1C(=O)c1c(O)c3c(c(O)c1C2=O)C[C@@](O)(C(=O)CO)C[C@@H]3O[C@H]1C[C@H](N)[C@H](O)[C@H](C)O1 [Doxorubicin, reference compound] | 128 ± 0.9 | 158 ± 4 |  |  |  |  |  | 
O=C(O)c1cn(C2CC2)c2cc(N3CCNCC3)c(F)cc2c1=O [ciprofloxacin, reference compound] |  |  | 0.235 (≈ 0.078 µg/mL) | 0.235 (≈ 0.078 µg/mL) | 1.89 (≈ 0.625 µg/mL) | 1.89 (≈ 0.625 µg/mL) | > 15.1 | 
CC[n+]1c(-c2ccccc2)c2cc(N)ccc2c2ccc(N)cc21 [ethidium bromide] |  |  |  |  |  |  |  | increases the dynamic viscosity
CNC(C)C1CCC(N)C(OC2C(N)CC(N)C(OC3OCC(C)(O)C(NC)C3O)C2O)O1 (stereo not shown) [gentamicin, reference compound] |  |  | 2.62 (≈ 1.25 µg/mL) | 5.24 (≈ 2.5 µg/mL) | 10.5 (≈ 5 µg/mL) | 10.5 (≈ 5 µg/mL) | > 10.5 | 

Reference: paper PMC12648656, “Palladium(II) Complexes with Noncovalent Interactions with DNA: Solution Speciation Controlled by Solvent Identity, pH, and Concentration” (Inorganic Chemistry, 2025)
